Data published in paper PMC2375326, “In vitro evaluation of amino acid prodrugs of novel antitumour 2-(4-amino-3-methylphenyl)benzothiazoles” (British Journal of Cancer, 2002).

Assays:
[1] = tested on: ACHN; experiment: NCI in vitro cytotoxicity assay (SRB), ACHN; assay type: cell-based; conditions: Homo sapiens, 48 h exposure, sulforhodamine B assay, mean graph, read-out: Log10 GI50 (ACHN) (converted)
Procedure: (§1) Cell culture and drug application procedures have been described previously ([Boyd and Paull, 1995]). Briefly, cell lines were inoculated into a series of 96-well microtiter plates, with varied seeding densities depending on growth characteristics of each cell line. Following a 24 h drug free incubation, test agents were added at five 10-fold dilutions with a maximum concentration of 100 μM. Cellular protein levels were determined after 48 h drug exposure by sulphorhodamine B colorimetry.

[2] = tested on: COLO 205; experiment: NCI in vitro cytotoxicity assay (SRB), COLO 205; assay type: cell-based; conditions: Homo sapiens, 48 h exposure, sulforhodamine B assay, mean graph, read-out: Log10 GI50 (COLO 205) (converted)
Procedure: as §1

[3] = tested on: A498; experiment: NCI in vitro cytotoxicity assay (SRB), A498; assay type: cell-based; conditions: Homo sapiens, 48 h exposure, sulforhodamine B assay, mean graph, read-out: Log10 GI50 (A498) (converted)
Procedure: as §1

[4] = tested on: CYP1A1 protein expression in MCF-7 cells; experiment: Western blot of CYP1A1 protein, MCF-7 lysates; assay type: cell-based, human; conditions: 1 μM, 24 h
Procedure: Whole cell lysates were prepared for examination of CYP1A1 protein expression from untreated MCF-7, IGROV-1 and HCT 116 cultures and following exposure of cells to compounds 1, 2, 2a, 2b, 3, 3a, 3b, 4, 4a and 4b. Following protein determination (n=3, [Bradford, 1976]) and addition of sample buffer, samples were boiled at 95°C for 5 min and solubilised proteins (50 μg) were separated by sodium dodecyl sulphate (SDS) polyacrylamide gel (10%) electrophoresis. Proteins were electroblotted to polyvinylidene difluoride (PVDF) membranes and probed for CYP1A1 protein with polyclonal antiserum specific for human CYP1A1/1A2 (Gentest Corporation). Secondary antibody was conjugated to alkaline phosphatase, and CYP1A1 was detected following brief (<10 min) incubation with bromochloroindolyl phosphate and nitro-blue tetrazolium in alkaline phosphatase buffer. Molecular weight markers and a positive control of recombinant CYP1A1 (Gentest Corporation), included in all blots, confirmed detection of 52 kDa CYP1A1 protein.

[5] = tested on: BT-549; experiment: NCI in vitro cytotoxicity assay (SRB), BT-549; assay type: cell-based; conditions: Homo sapiens, 48 h exposure, sulforhodamine B assay, mean graph, read-out: Log10 GI50 (BT-549) (converted)
Procedure: as §1

[6] = tested on: OVCAR-3; experiment: NCI in vitro cytotoxicity assay (SRB), OVCAR-3; assay type: cell-based; conditions: Homo sapiens, 48 h exposure, sulforhodamine B assay, mean graph, read-out: Log10 GI50 (OVCAR-3) (converted)
Procedure: as §1

[7] = tested on: HT29; experiment: NCI in vitro cytotoxicity assay (SRB), HT29; assay type: cell-based; conditions: Homo sapiens, HT-29; 48 h exposure, sulforhodamine B assay, mean graph; read-out: Log10 GI50 (HT29) (converted)
Procedure: as §1

[8] = tested on: PC-3; experiment: NCI in vitro cytotoxicity assay (SRB), PC-3; assay type: cell-based; conditions: Homo sapiens, 48 h exposure, sulforhodamine B assay, mean graph, read-out: Log10 GI50 (PC-3) (converted)
Procedure: as §1

[9] = tested on: M14; experiment: NCI in vitro cytotoxicity assay (SRB), M14; assay type: cell-based; conditions: Homo sapiens, 48 h exposure, sulforhodamine B assay, mean graph, read-out: Log10 GI50 (M14) (converted)
Procedure: as §1

[10] = tested on: MCF7; experiment: NCI in vitro cytotoxicity assay (SRB), MCF7; assay type: cell-based; conditions: Homo sapiens, 48 h exposure, sulforhodamine B assay, mean graph, read-out: Log10 GI50 (MCF7) (converted)
Procedure: as §1

[11] = tested on: OVCAR-8; experiment: NCI in vitro cytotoxicity assay (SRB), OVCAR-8; assay type: cell-based; conditions: Homo sapiens, 48 h exposure, sulforhodamine B assay, mean graph, read-out: Log10 GI50 (OVCAR-8) (converted)
Procedure: as §1

[12] = biological target: T1, CYP1A1 (Homo sapiens, UniProt P04798); experiment: Inhibition of recombinant CYP1A1 microsomal EROD activity; assay type: biochemical; conditions: microsomes expressing recombinant CYP1A1, pH 7.4, probe 7-ethoxyresorufin (100 μM); 30 μM agent; incubates without drug = 100% activity; mean of three, s.d. <10%; read-out: Microsomal CYP1A1 EROD activity (% control)
T1 sequence (P04798 1-512): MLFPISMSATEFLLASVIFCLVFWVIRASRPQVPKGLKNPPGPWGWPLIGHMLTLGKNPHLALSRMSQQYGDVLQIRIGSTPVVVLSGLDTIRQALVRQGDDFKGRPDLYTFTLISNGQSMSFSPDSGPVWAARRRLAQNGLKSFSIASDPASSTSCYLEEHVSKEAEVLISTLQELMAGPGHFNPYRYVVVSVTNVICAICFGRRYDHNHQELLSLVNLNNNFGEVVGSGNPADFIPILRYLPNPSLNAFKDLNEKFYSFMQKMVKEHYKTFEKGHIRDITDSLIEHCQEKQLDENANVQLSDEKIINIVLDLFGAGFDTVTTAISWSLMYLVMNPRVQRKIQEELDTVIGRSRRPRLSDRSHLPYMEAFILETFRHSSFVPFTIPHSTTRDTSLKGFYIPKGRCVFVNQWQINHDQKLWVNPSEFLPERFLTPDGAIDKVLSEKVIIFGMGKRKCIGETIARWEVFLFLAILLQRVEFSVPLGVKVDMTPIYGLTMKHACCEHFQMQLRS
Procedure: A sensitive and rapid fluorometric assay was used to measure EROD activity ([Burke et al, 1994]). Incubation mixtures (total 1 ml) consisted of 100 mM Tris-HCl (pH 7.4), 50 μM MgCl2, 100 μM 7-ethoxyresorufin and 100 μl cell homogenate. Homogenates were prepared following treatment of cells for 24 h with compounds 1, 2, 2a, 2b, 3, 3a, 3b, 4, 4a and 4b or vehicle alone and protein content determined (n=3). Thus induction of ethoxyresorufin O-deethylation by agents under study, catalysed by CYP1A1 activity, could be determined. Alternatively, microsomes expressing recombinant CYP1A1 (0.1 mg ml^−1) provided the enzyme source for EROD catalysis, in the presence or absence of drug, in order to determine inhibition of CYP1A1 activity by compounds 1, 2, 2a, 2b, 3, 3a, 3b, 4, 4a and 4b. Incubation mixtures were pre-incubated for 5 min at 37°C before initiation of reaction by addition of NADPH (500 μM). Following further incubations at 37°C (30 min for cell homogenates, 15 min for CYP1A1 microsomes), reactions were terminated by addition of 3 ml ice-cold acetonitrile. Reaction mixtures were centrifuged (1400 r.p.m., 10 min) before analyses of supernatants. Fluorescence was read on a Perkin-Elmer LS-5 luminescence spectrometer (excitation, 530 nm; emission 585 nm). Estimation of resorufin reaction product (pmoles mg^−1 protein, pmoles 100 μg^−1 microsomes), as a measure of CYP1A1 activity, was determined following performance of a resorufin standard curve.

[13] = tested on: LOX IMVI; experiment: NCI in vitro cytotoxicity assay (SRB), LOX IMVI; assay type: cell-based; conditions: Homo sapiens, 48 h exposure, sulforhodamine B assay, mean graph, read-out: Log10 GI50 (LOX IMVI) (converted)
Procedure: as §1

Compound | GI50 [1] | GI50 [2] | GI50 [3] | CYP1A1 protein expression (Western blot) [4] | GI50 [5] | GI50 [6] | GI50 [7] | GI50 [8] | GI50 [9] | GI50 [10] | GI50 [11] | activity at 15 min, 30 μM [12] | GI50 [13]
Cc1cc(-c2nc3cc(F)ccc3s2)ccc1N [Compound 2, 2-(4-Amino-3-methylphenyl)-5-fluorobenzothiazole] | 30.2 µM | 66.1 µM | 2.82 µM | induced | > 100 µM | 24.5 µM | 63.1 µM | 23.4 µM | 33.9 µM | < 0.01 µM | > 100 µM | 30.4% | > 100 µM
Cc1cc(-c2nc3cc(F)ccc3s2)ccc1NC(=O)[C@@H](N)CCCCN [Compound 2b] | 6.03 µM | 3.31 µM | 12.6 µM | induced | 14.1 µM | 10.7 µM | 3.24 µM | 12.6 µM | 2.14 µM | < 0.01 µM | 11.2 µM | 38.5% | 2 µM
